In paper PMC9223267, “Serine hydroxymethyltransferase as a potential target of antibacterial agents acting synergistically with one-carbon metabolism-related inhibitors” (Communications Biology, 2022):

Legend:
S. aureus = assay: Antibacterial activity evaluation (turbidity, OD600); format: cell-based, Staphylococcus aureus (ATCC29213); conditions: S. aureus ATCC29213
Method: (§1) E. faecium and E. faecalis were diluted to turbidity equivalents that matched 1.0 McFarland (McF) standard in distilled water (S. aureus and E. coli were also diluted to 0.5 McF), and additionally diluted 1:200 in Mueller–Hinton (MH) broth. The designated concentrations of the tested compounds were prepared by ten-fold serial dilutions directly in 96-well microtiter plates (IWAKI, Shizuoka, Japan), as previously described. […] The other compounds were serially diluted from 20 μM downwards (final concentration, 10 μM). […] Positive control wells included bacteria without any compound, and the negative control wells only contained MH broth. […] The optical density at 600 nm (OD600) was measured using a GloMax microtiter plate reader (Promega, WI, USA), and the EC50 values of each test compound and standard error were calculated by Microsoft Excel function, AVERAGE and STDEV/SQRT.

E. faecium [1] = assay: Antibacterial assay with an excess concentration of biomolecules (Ser, Gly, inosine, dT, FA); format: cell-based, Enterococcus faecium (JCM5804); conditions: E. faecium JCM5804; for EC50: read-out: EC50
Method: as §1
The ratio of the control EC50 (no competitors added) to the experimental EC50 (competitors added) was calculated for each test substance.

E. faecalis = assay: Antibacterial activity evaluation (turbidity, OD600); format: cell-based, Enterococcus faecalis (JCM7783); conditions: E. faecalis JCM7783
Method: as §1

E. coli = assay: as above; format: cell-based, Escherichia coli (ATCC25922); conditions: E. coli ATCC25922
Method: as §1

[2] = cited from earlier work
E. faecium [3] = assay: Antibacterial activity evaluation (turbidity, OD600); format: cell-based, Enterococcus faecium (JCM5804)
Method: as §1

[4] = molecular target: the molecule itself; assay: dynamic light scattering; 25 °C, Zetasizer NanoS, efmSHMT at 0.5 mg/mL, in triplicate; hydrodynamic radius 4.209 nm

Cc1[nH]nc2c1C(c1cc(CO)cc(-c3ccccc3)c1)(C(C)C)C(C#N)=C(N)O2 (stereo not shown) [SHIN-1]
pEC50 ± S.E. (S. aureus): < 5.7
EC50 (S. aureus; read-out: EC50): > 2000 nM
pEC50 ± S.E. (E. faecium [1]; 1 mM Inosine): 8.3 ± 0.3
EC50 (E. faecium [1]; 1 mM Inosine): 5.2 nM
pEC50 ± S.E. (E. faecium [1]; 1 mM deoxythymidine): < 5.7
EC50 (E. faecium [1]; 1 mM deoxythymidine): > 2000 nM
pEC50 ± S.E. (E. faecium [1]; 10 mM Glycine): 8.9 ± 0.0
EC50 (E. faecium [1]; 10 mM Glycine): 1.2 nM
pEC50 ± S.E. (E. faecium [1]; 100 mM Serine): 8.5 ± 0.1
EC50 (E. faecium [1]; 100 mM Serine): 3.4 nM
pEC50 ± S.E. (E. faecium [1]; 0.1 M folate): < 5.7
EC50 (E. faecium [1]; 0.1 M folate): > 2000 nM
pEC50 ± S.E. (E. faecalis): < 5.7
EC50 (E. faecalis; read-out: EC50): > 2000 nM
pEC50 ± S.E. (E. coli): < 5.7
EC50 (E. coli; read-out: EC50): > 2000 nM
pharmacokinetic properties [2]: lacked pharmacokinetic properties suitable
half-life ([2]; response letter, ref (6) García-Cañaveras et al. 2021): too short to use in vivo
pEC50 ± S.E. (E. faecium [3]; E. faecium JCM5804): 9.3 ± 0.1
EC50 (E. faecium [3]; E. faecium JCM5804, read-out: EC50): 0.5 nM
50% effective concentration (EC50) (E. faecium [3]; growth of E. faecium, order of magnitude given): 10^–10 to 10^–11 M

B1: Enterococcus faecium serine hydroxymethyltransferase (enzyme)
chain: VDYKTFDPDLWAAIAKEEERQEHNLELIASENFVSEAVMAAQGSILTNKYAEGYPGHRYYGGCEFVDIVENLAIDRAKELFGAKFANVQPHSGSQANTAAYLALVEPGDTILGMDLSAGGHLTHGSPVNFSGKTYHFVAYGVDPTTEVIDYNVVRILARKHQPKLIVAGASAYGRTIDFAKFREIADEVGAKLMVDMAHIAGLVAAGLHPNPVPYADITTTTTHKTLRGPRGGMILTNDEALAKKINSAVFPGIQGGPLEHVIAGKAVAFKEALDPAFKEYSEQIIANAKAMVKVFNQAIGTRVISGATDNHLMLIDVRELGINGKEAESILDSVNITVNKNSIPFETLSPFKTSGIRIGTPAITTRGFKEEDAVKVAELVVKALQAKDDNAQLDEVKTGVRELTEKFPLHKK
modifications: pyridoxal 5'-phosphate (PLP) covalently linked as a Schiff's base to K226 (in the efmSHMT/(+)-SHIN-1 structure; relocated to Ser or Gly in the ternary complexes)
notes: theoretical monomer molecular weight 44.7 kDa; A few vector residues may remain at the N-terminus after PreScission cleavage; also called efmSHMT; E. faecium SHMT; source: E. coli BL21(DE3), purified (HisTrap, PreScission digestion, HiTrap Q, Superdex 75); not shown: His tag, N-terminal, cleaved
stoichiometry N [4]: 2
